Source: US20180340156A1, “PURIFICATION OF A SOLUBLE AND ACTIVE FORM OF ASPARTATE N-[…]” (The University of Toledo, priority 2015, published 2018)
Entries after “also recorded” stand apart in the source; their conditions may differ. Values belong to the molecule of their own block, whether it stands above or below them.

Assays:
[1] = molecular target: T1, MBP-ANAT fusion enzyme (Homo sapiens, UniProt Q8N9F0); experiment: Effect of detergents on ANAT activity (DTNB-based assay, saturating substrates); assay type: biochemical; conditions: incubation with detergent at CMC
T1 construct: the full length ANAT enzyme has been expressed and purified in a fusion construct with MBP; made in house; host or cells: E. coli NiCo21(DE3)
T1 sequence (Q8N9F0 1-302): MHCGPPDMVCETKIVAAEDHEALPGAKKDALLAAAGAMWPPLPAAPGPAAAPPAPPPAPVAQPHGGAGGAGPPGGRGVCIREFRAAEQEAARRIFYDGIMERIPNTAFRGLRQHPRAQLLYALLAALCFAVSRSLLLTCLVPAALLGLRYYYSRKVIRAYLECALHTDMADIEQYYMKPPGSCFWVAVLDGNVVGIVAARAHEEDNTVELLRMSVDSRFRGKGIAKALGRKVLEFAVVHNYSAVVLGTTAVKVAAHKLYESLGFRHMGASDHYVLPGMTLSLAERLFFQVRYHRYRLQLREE
Method: This assay is illustrated in FIGS. 4A-4B.
(§1) The effect of detergent properties on ANAT activity was tested using a variety of different detergents, each at their critical micelle concentration (CMC) levels. All measurements were conducted at least in duplicate by using the DTNB-based assay at saturating substrates levels. The effect of an organic solvent on ANAT activity was also evaluated by varying the DMSO concentration in the assay from 0 to 50%. To test the stability of the purified MBP-ANAT-his construct, the enzyme was stored at 4° C. for several days and activity was monitored daily. To test for the optimal long term storage conditions, the enzyme activity was followed through multiple freeze-thaw cycles between −80° C. and room temperature.

[2] = molecular target: T2, membrane-bound ANAT (Homo sapiens, UniProt Q8N9F0); experiment: Detergent solubilization/extraction of native ANAT from membrane fraction
T2 construct: polyhistidine tag (C); made in house; host or cells: E. coli BL21(DE3), membrane fraction
T2 sequence (Q8N9F0 1-302): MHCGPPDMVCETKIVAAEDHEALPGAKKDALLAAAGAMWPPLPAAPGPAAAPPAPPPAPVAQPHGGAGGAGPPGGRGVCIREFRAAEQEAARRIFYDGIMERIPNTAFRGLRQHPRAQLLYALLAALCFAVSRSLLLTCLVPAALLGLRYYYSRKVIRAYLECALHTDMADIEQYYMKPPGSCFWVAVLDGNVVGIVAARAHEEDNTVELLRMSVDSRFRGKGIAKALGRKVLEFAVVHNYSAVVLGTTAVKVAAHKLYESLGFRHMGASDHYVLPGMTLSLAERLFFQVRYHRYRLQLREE
Method: The human nat8l gene was cloned into the pETDEST42 plasmid using the Gateway cloning technology (Life Technologies). This plasmid was used to transform E. coli BL21(DE3) cells for protein production. The cells were grown at 37° C. to an A600 of 0.6-0.8 in Luria-Bertani (LB) medium containing 100 μg/mL ampicillin, and gene expression was then induced with 1 mM isopropyl […] (IPTG) at 28° C. for 5 hours. The cell pellet was resuspended in buffer A [50 mM HEPES, 500 mM NaCl and 10% glycerol (pH 7.4)] and lysed by sonication on ice for 8 min with 30 s pulse on and 2 min pulse off cycle. The cell lysate was centrifuged at 11,000 rpm for 30 minutes to pellet cell debris and unlysed cells. The membrane fraction was collected by high-speed centrifugation of the supernatant at 40,000 rpm for 1 h. Solubilization trials of ANAT from the membrane fraction were conducted with a variety of different detergents that include ionic, non-ionic, and zwitterionic detergents. Twenty microliter aliquots of the resuspended membrane fraction were mixed with different amounts of stock detergent solutions each prepared at 10 times their critical micelle concentration (CMC), leading to a final concentration of 1.5×CMC and […]. These solutions were incubated at room temperature for 1 h or at 4° C. overnight in a rocking platform.

[3] = molecular target: T1, MBP-ANAT fusion enzyme; experiment: DTNB-based ANAT enzyme activity assay, substrate kinetics; assay type: biochemical; conditions: for catalytic efficiency as alternative substrate relative to physiological substrate: alternative acetyl group acceptor vs L-aspartate; for alternative substrate activity: screen of amino acid library of 160 compounds
Method: (§2) The ANAT activity was measured by an established DTNB-based assay in which the coenzyme A product participates in a thiol exchange reaction with DTNB. This assay is illustrated in FIGS. 4A-4B. The resulting TNB^2− ion was monitored at 412 nm (c=14.15 mM^−1cm^−1) using a SpectraMax 190 spectrophotometer plate reader (Molecular Devices, CA).
(§3) The DTNB-based assay was used to measure the kinetic parameters for the physiological substrates and some alternative ANAT substrates.
The kinetic parameters for the physiological substrates of ANAT were determined using the assay described above by varying the concentrations of both substrates and fitting the data to the equation for a sequential kinetic mechanism (eq. 1). […] A screen for alternative substrates was conducted using a customized amino acid library containing a total of 160 compounds.

[4] = molecular target: ANAT fusion enzyme with GST (Homo sapiens, UniProt Q8N9F0); conditions: L-aspartate as substrate
Method: as §2, §3

[5] = substrate: CC(=O)SCCNC(=O)CCNC(=O)[C@H](O)C(C)(C)COP(=O)(O)OP(=O)(O)OC[C@H]1O[C@@H](n2cnc3c(N)ncnc32)[C@H](O)[C@@H]1OP(=O)(O)O; experiment: purified protein, by the assay type; conditions: other: acetyl-CoA as substrate, MBP-ANAT fusion, sequential mechanism fit, pH 7.4
[6] = Enzyme stability on storage at 4° C. and freeze-thaw cycles; assay type: physicochemical; conditions: stored at 4° C. for several days to one week, assayed daily
Method: as §1

Molecule: CCCCCCCCCCCC[N+](C)(C)[O-] [LDAO]
loss of catalytic activity [1]: nearly complete loss of catalytic activity

extraction efficiency of membrane-bound ANAT ([2]; 8.7 CMC): effective
loss of catalytic activity [1]: significant loss of activity
Molecule: OC[C@H]1O[C@H](O[C@H]2[C@H](O)[C@@H](O)[C@H](OCCCCCC3CCCCC3)O[C@@H]2CO)[C@H](O)[C@@H](O)[C@@H]1O [Cymal 5]

Molecule: N[C@@H](CCC(=O)O)C(=O)O [L-glutamate]
catalytic efficiency as alternative substrate relative to physiological substrate [3]: less than 1%
alternative substrate activity [3]: profound loss of activity

extraction efficiency of membrane-bound ANAT ([2]; non-ionic detergents, 1.5 CMC): highest extraction efficiency
Molecule: CCCCCCCCCCCCOCCOCCOCCOCCOCCOCCOCCOCCO [C12E8]

catalytic efficiency as alternative substrate relative to physiological substrate [3]: less than 10%
Molecule: NC(C(=O)O)C(N)C(=O)O (stereo not drawn) [2,3-diaminosuccinate]

extraction efficiency of membrane-bound ANAT ([2]; 8.7 CMC): effective
Molecule: CCCCCCCCCCCCO[C@@H]1O[C@H](CO)[C@@H](O[C@H]2O[C@H](CO)[C@@H](O)[C@H](O)[C@H]2O)[C@H](O)[C@H]1O [DDM]

loss of catalytic activity [1]: significant loss of activity
Molecule: CCCCCCCCO[C@@H]1O[C@H](CO)[C@@H](O)[C@H](O)[C@H]1O [octylglucoside]

Molecule: CC(C(=O)O)[C@H](N)C(=O)O (stereo partly drawn) [β-methylaspartate]
alternative substrate activity [3]: best of these few alternative substrates; also recorded: profound loss of activity

Molecule: CCCCCCCCCCCCOS(=O)(=O)[O-].[Na+] [SDS]
loss of catalytic activity [1]: nearly complete loss of catalytic activity

Km [4]: 100 µM
Km ([3]; L-aspartate as substrate, MBP-ANAT fusion, sequential mechanism fit, pH 7.4): 160 µM
Molecule: N[C@@H](CC(=O)O)C(=O)O [L-aspartate]

B1: MBP-ANAT fusion enzyme (Homo sapiens) (protein)
chain: MHCGPPDMVCETKIVAAEDHEALPGAKKDALLAAAGAMWPPLPAAPGPAAAPPAPPPAPVAQPHGGAGGAGPPGGRGVCIREFRAAEQEAARRIFYDGIMERIPNTAFRGLRQHPRAQLLYALLAALCFAVSRSLLLTCLVPAALLGLRYYYSRKVIRAYLECALHTDMADIEQYYMKPPGSCFWVAVLDGNVVGIVAARAHEEDNTVELLRMSVDSRFRGKGIAKALGRKVLEFAVVHNYSAVVLGTTAVKVAAHKLYESLGFRHMGASDHYVLPGMTLSLAERLFFQVRYHRYRLQLREE
Km [5]: 3.1 µM

B2: native enzyme: human aspartate N-acetyltransferase without the MBP fusion domain (protein, UniProt Q8N9F0 1-302, looked up)
N-acetylaspartate synthetase: MHCGPPDMVCETKIVAAEDHEALPGAKKDALLAAAGAMWPPLPAAPGPAAAPPAPPPAPVAQPHGGAGGAGPPGGRGVCIREFRAAEQEAARRIFYDGIMERIPNTAFRGLRQHPRAQLLYALLAALCFAVSRSLLLTCLVPAALLGLRYYYSRKVIRAYLECALHTDMADIEQYYMKPPGSCFWVAVLDGNVVGIVAARAHEEDNTVELLRMSVDSRFRGKGIAKALGRKVLEFAVVHNYSAVVLGTTAVKVAAHKLYESLGFRHMGASDHYVLPGMTLSLAERLFFQVRYHRYRLQLREE
loss of activity on storage [6]: substantial loss of catalytic activity
